According to article PMC4391943, “Novel Epigallocatechin-3-Gallate (EGCG) Derivative as a New Therapeutic Strategy for Reducing Neuropathic Pain after Chronic Constriction Nerve Injury in Mice” (PLoS ONE, 2015):

Assays:
CCI-mice = assay: Thermal hyperalgesia (plantar heat / Hargreaves test), paw withdrawal latency after chronic constriction injury; assay type: in vivo; conditions: for latency to paw withdrawal to a thermal stimulus: mean ± SEM, n = 5; for time-dependent effect on thermal paw withdrawal latency vs vehicle: 50 mg/Kg i.p., assessed weekly from 7 to 56 dpi, n = 15 (Fig 1)
Protocol: The chronic constriction injury (CCI) followed the procedure described elsewhere. Animals were anesthetized with sodium pentobarbital (50 mg/kg; i.p.), an incision was made in the right thigh, and the sciatic nerve was exposed. Two loose ligatures with 1 mm apart were then made around the nerve using the 6–0 poly-glycolic acid synthetic absorbable sutures. The incision was closed using 5–0 interrupted nylon sutures. A control group was included with sham surgery where the right sciatic nerve was exposed but not further manipulated.
For dose response studies, EGCG and the two synthetic EGCG derivatives compound 23 and compound 30 were administered by intra-peritoneal injection at 10, 30, 50 and 100 mg/Kg (n = 5 mice/compound/dose), 30 minutes after the CCI. To analyze the time-dependent effect EGCG and the two synthetic EGCG derivatives compound 23 and compound 30 were administered by intra-peritoneal injection at 50 mg/Kg (n = 15 mice/compound), 30 minutes after the CCI. Another set of animals were used to study the effect of 50 mg/kg of EGCG and the two synthetic EGCG derivatives compound 23 and compound 30 at 14 dpi (n = 15 mice/compound). In all cases, the administration was daily repeated during the first week. All compounds were dissolved in DMSO/saline solution (1:9; v/v), used as vehicle group.
To measure changes in thermal sensation we used the plantar heat test (Ugo Basile, Italy) as previously described. Briefly, mice were acclimated 5 days (15 min/day) prior to CCI. At 7, 14, 21, 28, 35, 42, 49 and 56 dpi, mice were enclosed in a clear Plexiglas box. After 15 min, during which the animals were provided with free exploration to habituate to the apparatus, infrared light beam was applied to the plantar surface of the […], and paw withdrawal latency was recorded in seconds. The infrared stimulus application automatically shut off at 30 seconds to avoid tissue damage. Four trials were measured randomly for right […] with at least 2 minutes between each trial.

FASN = assay: Western blot of FASN protein levels in the dorsal horn of the spinal cord; assay type: in vivo, mice; conditions: 50 mg/Kg, 14 and 56 dpi
Protocol: Mice (n = 5 per group) were sacrificed with sodium pentobarbital (90 mg/kg; i.p.) at 14 and 56 dpi and spinal cord segments distal to T12 vertebra were quickly removed and frozen. For total protein extraction, the dorsal horn of the spinal cord was homogenized in modified RIPA buffer (50 mM Tris–HCl pH 7.5, 1% Triton X-100, 0.5% sodium deoxycholate, 0.2% SDS, 100 mM NaCl, 1 mM EDTA, 2 mM PMSF, 1 μg/μL aprotinin, 1 μg/μL leupeptin and 2 mM sodium orthovanadate).
(§1) Western blotting was performed as previously described. The following primary antibodies were used: anti-FASN (1:1000, BD Bioscience, San Jose, CA); anti-TNF-α, anti-IL-1β, anti-IL-6 and anti-NFκB (all 1:500, Santa Cruz Biotechnology, Santa Cruz, CA); anti-phosphoNMDAR2B (Tyr1472) (1:2000, Affinity Bioreagents, Golden, CO) and anti-NMDAR2B (1:1000, Chemicon, Temecula, CA). Loading control was performed by reprobing the membranes with anti-actin (1:10,000; MP Biochemicals, Aurora, OH), anti-NeuN (1:1,000; Chemicon) or anti-N-cadherin (1:1000, BD Bioscience). Membranes were incubated with the corresponding horseradish peroxidase-conjugated antibody (1:2,000; Promega, Madison, WI). Immunoreactive bands were visualized using the Western Blotting Luminol Reagent and quantified by a computer-assisted densitometer (Gel-Pro Analyzer, version 4, Media Cybernetics).

TNF-α, IL-1β and IL-6 = assay: Quantitative RT-PCR of cytokine mRNA in the dorsal horn of the spinal cord; assay type: in vivo, mice; conditions: 50 mg/Kg
Protocol: Total RNA was isolated from dorsal horn of spinal cord segments distal to T12 vertebra of all groups (n = 5 mice per group) using the Total RNA isolation nucleospin RNA II Kit. Purified RNA (600 ng) was reverse transcribed using the StrataScript First Strand cDNA Synthesis System. The cDNA synthesis was performed at 42°C for 60 minutes according to the manufacturer’s instructions. The cDNA was then analyzed by quantitative RT-PCR using the following TaqMan Gene Expression Assays (Applied Biosystems, Foster City, CA): 18S, HS99999901_s1; TNF-α, Mm00443258_m1; IL-1β, Mm00434228_m1; IL-6, Mm00446190_m1. The RT-PCR was performed as previously described. Analysis and quantification was obtained with the comparative quantification analysis program of the Mx-Pro Q-PCR Analysis software version 3.0 (Strategene).

NMDAR2B = assay: Western blot of NMDAR2B in the synaptic plasma membrane fraction of the dorsal horn; assay type: in vivo, mice; conditions: 50 mg/Kg, 56 dpi
Protocol: Subcellular fractionation was obtained by differential centrifugation as described elsewhere. Briefly, tissue was homogenized in lysis buffer (10 mM Tris-HCl pH 7.5, 1 mM EDTA, 1 mM Na3VO4, 0.25 M sucrose, 2 mM PMSF, 1 μg/μL aprotinin, 1 μg/μL leupeptin, 2 mM sodium orthovanadate). The homogenate was centrifuged at 2,000 × g for 10 min at 4°C to separate the nuclei fraction (P1). The P1 was resuspended in lysis buffer. The resulting supernatant was centrifuged at 10,000×g for 15 min at 4°C to obtain a crude membrane fraction (P2). The P2 was resuspended and incubated in the lysis buffer containing 0.5% Triton X-100 for 15 min, and then centrifuged at 25,000 × g for 20 min to obtain the synaptosomal membrane fraction (P3). Finally, the P3 was resuspended in lysis buffer and centrifuged on a discontinuous sucrose gradient (0.8 M, 1 M and 1.2 M) at 150,000×g for 2 h. Synaptic plasma membrane (SPM) was collected from the 1:1.2 M interface and resuspended in 50 mM HEPES, 2 mM EDTA, 1 mM PMSF, 10 μg/ml aprotinin, 1 μg/ml leupeptin and 2 mM sodium orthovanadate.
as §1

[1] = Serum stability study, mouse serum; assay type: in vitro ADME; conditions: mouse (Balb/c) serum, 37°C, 75% serum, 0.5 mM compound; for half-life at 0.5 mM: mouse serum (75% final serum content), read-out: half-life (t1/2) (converted)
Protocol: Peptide stabilities were assayed in diluted serum as previously described. Human serum (Sigma, S7023) or mouse serum (Europa Bioproducts, EQSM-0100) were incubated at 37°C for 10 min. The assay was initiated upon the addition of the test compound solved in PBS to the serum (75% final serum content) for a final compound concentration of 0.5 mM. Then, 500 µL aliquots of the incubations were taken for the following time points: 0, 15, 30, 60, 120 and 240 min. The aliquots were mixed with 750 µL of cold acetonitrile (ACN) and incubated at 4°C for 10 min to precipitate serum proteins. The supernatant was collected for each sample after centrifugation at 39,000 g for 10 min and were immediately analyzed by high performance liquid chromatography-mass spectrometry (HPLC-MS).

[2] = 10 mg/Kg i.p. daily first week post-CCI, 7 dpi
[3] = 10 mg/Kg i.p. daily first week post-CCI, 21 dpi
[4] = 30 mg/Kg i.p. daily first week post-CCI, 7 dpi
[5] = 30 mg/Kg i.p. daily first week post-CCI, 21 dpi
[6] = 50 mg/Kg i.p. daily first week post-CCI, 7 dpi
[7] = 50 mg/Kg i.p. daily first week post-CCI, 21 dpi
[8] = 100 mg/Kg i.p. daily first week post-CCI, 7 dpi
[9] = 100 mg/Kg i.p. daily first week post-CCI, 21 dpi

half-life at 0.5 mM [1] | Molecule | latency to paw withdrawal to a thermal stimulus (CCI-mice; [2]) | latency to paw withdrawal to a thermal stimulus (CCI-mice; [3]) | latency to paw withdrawal to a thermal stimulus (CCI-mice; [4]) | latency to paw withdrawal to a thermal stimulus (CCI-mice; [5]) | latency to paw withdrawal to a thermal stimulus (CCI-mice; [6]) | latency to paw withdrawal to a thermal stimulus (CCI-mice; [7]) | time-dependent effect on thermal paw withdrawal latency vs vehicle (CCI-mice) | latency to paw withdrawal to a thermal stimulus (CCI-mice; [8]) | latency to paw withdrawal to a thermal stimulus (CCI-mice; [9]) | effect on FASN protein levels (FASN) | decrease in mRNA levels of TNF-α, IL-1β and IL-6 compared to vehicle (TNF-α, IL-1β and IL-6; 14 dpi) | protein levels of NMDAR2B in the synaptic plasma membrane (SPM) (NMDAR2B) | decrease in mRNA levels of TNF-α, IL-1β and IL-6 compared to vehicle (TNF-α, IL-1β and IL-6; 56 dpi) | mRNA levels of IL-6 compared to vehicle (TNF-α, IL-1β and IL-6; 56 dpi) | half-life (t1/2) [1]
18 min | O=C(Oc1cccc2c(OC(=O)c3cc(O)c(O)c(O)c3)cccc12)c1cc(O)c(O)c(O)c1 [Compound 23, 1,5-Bis [(3,4,5-trihydroxybenzoyl)oxy] naphthalene] | 4.07 ± 0.31 s | 3.89 ± 0.43 s | 4.57 ± 0.29 s | 3.77 ± 0.59 s | 4.38 ± 0.3 s | 3.93 ± 0.24 s | did not detect differences at any time point analyzed | 4.41 ± 0.27 s | 3.71 ± 0.29 s | no effect | no differences | did not result in changes | – | – | –
24 min | O=C(Oc1ccc(-c2ccc(OC(=O)c3cc(O)c(O)c(O)c3)cc2)cc1)c1cc(O)c(O)c(O)c1 [Compound 30, 4,4′-Bis [(3,4,5-trihydroxybenzoyl)oxy]-1,1′-biphenyl] | 3.71 ± 0.39 s | 4.11 ± 0.51 s | 3.93 ± 0.37 s | 4.33 ± 0.57 s | 4.31 ± 0.3 s | 7.61 ± 0.67 s | augmentation in the paw withdrawal latency from 14 to 56 dpi | 4.79 ± 0.44 s | 6.49 ± 0.53 s | no effect | ~3 fold | specific decrease | not observed | slight decrease | –
– | epigallocatechin-3-gallate [EGCG] | 3.93 ± 0.33 s | 3.83 ± 0.23 s | 5.01 ± 0.35 s | 4.28 ± 0.45 s | 13.01 ± 1.02 s | 8.58 ± 0.9 s | increase in paw withdrawal latency in CCI-mice treated with EGCG from 7 to 21 dpi | 9.38 ± 0.66 s | 6.15 ± 0.42 s | no effect | ~3 fold | did not result in changes | not observed | – | < 0,1 h
